# Assay results reported in patent US7326768B2, “Goodpasture antigen-binding protein isoforms and protein misfolded-mediated disorders” (priority 2003, dated 2008).
# “Also recorded” adds a separate entry of the source. Ends that are not written are not given here.
# Assays:
# [1] = target: T1, recombinant human GPBP (Homo sapiens, UniProt Q9Y5P4); assay: In vitro phosphorylation: GPBP kinase activity / autophosphorylation; details: for GPBP kinase activity in vitro (autophosphorylation): modulators at 200 μM, 10 min autophosphorylation reaction
# T1 sequence (Q9Y5P4 1-624): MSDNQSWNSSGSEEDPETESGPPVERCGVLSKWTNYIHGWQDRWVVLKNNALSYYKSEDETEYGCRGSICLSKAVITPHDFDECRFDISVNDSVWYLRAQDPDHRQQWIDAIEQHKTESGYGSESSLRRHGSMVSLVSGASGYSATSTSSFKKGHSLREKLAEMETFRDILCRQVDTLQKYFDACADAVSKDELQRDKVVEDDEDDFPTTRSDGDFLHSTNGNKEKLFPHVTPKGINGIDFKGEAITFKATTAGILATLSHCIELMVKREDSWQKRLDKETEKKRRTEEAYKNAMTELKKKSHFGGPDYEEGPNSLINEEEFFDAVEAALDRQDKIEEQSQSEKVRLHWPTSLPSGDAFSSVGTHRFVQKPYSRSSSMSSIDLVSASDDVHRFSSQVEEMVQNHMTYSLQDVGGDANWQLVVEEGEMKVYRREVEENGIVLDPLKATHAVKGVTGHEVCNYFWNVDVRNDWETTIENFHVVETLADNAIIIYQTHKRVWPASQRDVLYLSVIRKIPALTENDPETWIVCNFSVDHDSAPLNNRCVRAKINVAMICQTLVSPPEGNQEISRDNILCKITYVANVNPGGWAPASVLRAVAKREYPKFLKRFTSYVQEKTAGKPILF
# [2] = system: α3(IV)NC1-expressing cells (HEK293); assay: α3(IV)NC1 conformer production in cultured cells (Western blot of culture media); assay type: cell-based, human; details: synthetic peptides 100-200 μM, organic compounds 5-50 μM, 24-48 h
# [3] = system: C57BL/6 mice; assay: DAB-Am-4 treatment of control mice (genetic background control); assay type: in vivo; details: C57BL/6 control mice
# Procedure: Animal studies. NZW, male or female, 4-6 month-old were injected intraperitoneally either with 1 μg/g of body weight of DAB-Am-4 and/or with 20 μg/g of body weight of the Q2L or Q2D peptide. These products were administered in a volume of 500 μl of steril saline solution 3 times per week, at alternate days, during 12 consecutive weeks. Age-matched uninjected mice were used as controls. At the end of the experiment, mice were sacrificed and kidneys were fixed in 10% paraformaldehide and processed for pathological studies. Similar DAB-Am-4 treatment studies were performed on C57BL/6 animals for genetic background control.
# [4] = system: NZW mice; assay: Degenerative glomerulopathy in NZW mice (histochemical studies of kidney); assay type: in vivo
# [5] = system: CaM kinase II; details: known; cited from earlier work
# [6] = target: T1, recombinant human GPBP; assay: Far Western blot with recombinant GPBP; assay type: binding; set-up: FLAG; made in house; host or cells: yeast; details: 1 μg peptide
# [7] = system: CaM kinase II; assay: CaM kinase II inhibition; assay type: biochemical
# [8] = NZW treated with DAB-Am-4 and peptide
molecule,measurement,setting,value
"NCCCN(CCCN)CCCCN(CCCN)CCCN [DAB-Am-4, polypropylenimine tetraamine dendrimer, reference compound]",effect on GPBP autophosphorylation at decreasing concentrations,[1]; decreasing concentrations up to 10 μM,activation
same,GPBP kinase activity in vitro (autophosphorylation),[1],potent activator; also recorded: caused induction
same,α3(IV)NC1 conformer production in cultured cells,[2],potent activator
same,α3(IV)NC1 conformer production in cultured cells,[2]; listed as DAB-Am4,efficient increase in conformer production
same,histological changes,[3],not observed histological changes of relevance
same,progression of the glomerulopathy,"[4]; 4-6 month-old NZW, 1 μg/g i.p. 3 times per week, 12 weeks","acceleration of the degenerative process, resulting in premature glomerulosclerosis at 7-9 month of age"
same,morphological pattern of disease progression,"[4]; NZW, DAB-Am-4 treatment",progression through Stages 3b and 4b
"COc1ccc(S(=O)(=O)N(CCO)c2ccccc2CN(C)CC=Cc2ccc(Cl)cc2)cc1 [KN93, 2-[N-(2-hydroxyethyl)-N-(4-methoxybenzenesulfonyl)]amino-N-(4-chlorocinnamyl)-N-methylbenzylamine]",GPBP kinase activity in vitro (autophosphorylation),[1],efficiently impaired
same,α3(IV)NC1 conformer production in cultured cells,[2],reduced cell conformer production
same,relative inhibitory potency for CaM kinase II,[5],more potent inhibitor than KN62
Ac-KGKPGDTGPPAAGAVMRGFVFT-NH2 [GPpep1bov],binding of GPBP to the peptide,[6],did not display binding capacity
"LATLSHCIELMVKR (not fully specified (N-terminus, C-terminus)) [Q2]",inhibition of CaM kinase II,[7],efficiently inhibited
same,synergistic inhibitory effect on GPBP kinase activity,[1]; combined with Ca^2+CaM,no cooperative inhibitory effect
same,synergistic inhibitory effect on GPBP kinase activity,[1]; combined with KN62,no cooperative inhibitory effect
same,GPBP kinase activity in vitro (autophosphorylation),[1],efficiently inhibited
same,α3(IV)NC1 conformer production in cultured cells,[2],reduction in conformer production; also recorded: efficiently inhibits; also recorded: more effective inhibiting cell conformer production than Q4
same,amyloid-like matter formation (thioflavin T or Congo red staining),[4]; [8],efficiently inhibited amyloid-like matter formation
same,fibrotic reaction in glomeruli,[4]; [8],glomeruli virtually devoid of fibrotic reaction
same,fuchsinophilic material at the subendothelial space,[4]; [8],unable to reduce
same,material deposited in the glomerulus of suspected collagenous nature,[4]; NZW treated with DAB-Am-4 and peptide 20 μg/g i.p.,sharply reduced
